Assay results from patent publication US12564568B2, “PKC pathway in Parkinson's Disease” (CEDARS-SINAI MEDICAL CENTER, priority 2018, dated 2026).
Entries after “also recorded” stand apart in the source; their conditions may differ. Like-named read-outs stand apart in the source and are kept apart here. Where a SMILES comes first, the peptide text is derived from it. The star is where a group is joined. Cbz = O=C(OCc1ccccc1)*

Tests used:
P53 = P53 level in mDA cultures under proteasome inhibitor, 24 hrs (western blot); assay type: cell-based, human; conditions: mDA/DaN cultures, 24 hrs treatment
Experimental: Protein degradation can be largely divided into protosomal and autophagy/lysosomal degradation pathways.
Western blot: Cells were gently scraped off the plates, washed with PBS, centrifuged at 15000 RPM for 1 min, and dry pellets were frozen at −80° C. Samples were then thawed and lysed using 1×NETN buffer (20 mM Tris-HCl (pH 8.0), 100 mM NaCl, 0.5 mM EDTA and 0.5% NP-40) supplemented with phosphatase/protease inhibitor cocktail (MS-SAFE, Sigma-Aldrich). Lysates were sonicated in an automated cold bath sonicator for 20 mins using alternating 10 sec pulses followed by 10 sec rests. Samples were centrifuged for 20 min at 4° C. at 15000 RPM. Total soluble protein concentrations were measured using a Bradford assay (BIO-RAD). […] Combined α-synuclein and p-PKCα expression plots were calculated by first normalizing bands to β-actin, then to the 02iCTR signal present in each blot. […] ROC plot and area under the curve was determined using R package ROCR to determine predicative probability percentages.
To test overall degradation rates, global […] function was inhibited in culture for 48 hours via cycloheximide treatment and protein was assessed and quantified over time. […] A significant reduction in the amount of LAMP1 was detected in all 3 EOSPD lines, which was consistent with the proteomics analysis. […]

α-synuclein [1] = assay: α-synuclein protein level in day 30 iPSC-derived mDA (DaN) cultures after drug treatment (western blot, immunostaining); assay type: cell-based, human; conditions: control and EOSPD cultures, 24 hrs treatment
α-synuclein [2] = assay: as above; assay type: cell-based, human; conditions: for α-synuclein level: phorbol ester PKC agonists, PMA 10 μM, PRO 5 μM, day 27-30; for α-synuclein levels (western blot): EOSPD/PD cultures (190iPD); for α-synuclein levels (western blot) / amount of α-synuclein protein (western blot): treated 3 days from day 27, PEP005 1 μM, SMER-28 5 μM, Trehalose; for amount of α-synuclein protein (western blot): control line cultures (02iCTR); for synuclein level: D30 mDA neurons (FIG. 37)
Experimental: (§1) iPSC maintenance, mDA neuron differentiation and drug treatments: iPSCs were maintained in E8 media on Matrigel and passaged every 5 days at split ratios from 1:6 to 1:12 as needed using Versene. Only iPSCs between passage 17 and passage 35 were used in this study. For differentiation, iPSCs were grown to ˜80% confluency. Cells were singularized with Accutase (Millipore/Sigma #SCR005) (5 minutes at 37° C.) and plated onto Matrigel-coated 6-well plates (BD Biosciences) at 200K cells per cm^2 (for a fully confluent monolayer) in E8 media with 5 μM Y27632 (StemGent). 24 hours after plating, media was changed to Stage 1 (50% DMEM/F12, 50% Neurobasal, N2, B27-Vitamin A, LDN-193189 (LDN), SB431542 (SB)). Stage 1 media was changed each day (3 mL per well) for 3 days. Media was next switched to Stage 2 (50% DMEM/F12, 50% Neurobasal, N2, B27-Vitamin A, LDN, SB, Purmorphamine (PMN), CHIR99021 (CHIR), Sonic hedgehog (SHH), Fibroblast Growth Factor 8 (FGF8)). Stage 2 media was changed each day (3 mL per well) for 4 days. Media was then switched to Stage 3 (50% DMEM/F12, 50% Neurobasal, N2, B27-Vitamin A, LDN, CHIR, all-trans-Retinoic acid (ATRA)). Stage 3 media was changed each day (3 mL per well) for 4 days. Finally, media was switched to Stage 4 (50% DMEM/F12, 50% Neurobasal, N2, B27+Vitamin A, Brain-Derived Neurotrophic Factor (BDNF), Glial Cell Line-Derived Neurotrophic Factor (GDNF), dibutyryl cyclic-AMP sodium salt (dbCAMP), L-Ascorbic Acid (AA), γ-Secretase inhibitor (DAPT), CHIR, Transforming Growth Factor beta-3 (TGF β3)). Stage 4 media was changed each day (3 mL per well) for 3 days. On day 15, cells were dissociated to single cells using Accutase (20 mins at 37° C.) and gently lifted. Dissociated cells were resuspended in Maturation Medium (50% DMEM/F12, 50% Neurobasal, N2, B27+Vitamin A, BDNF, GDNF, dbCAMP, AA, DAPT, TGF3) plus 5 μM Y27632 and reseeded onto Matrigel-coated 6-well plates at 200 k/cm^2 in 1 mL total volume or onto Matrigel-coated L-glass coverslips in a 24-well plate at 200 k/50 μL drop. Cells were allowed to attach for 45 mins at 37° C. and Maturation Medium was then added to final volumes of 3 mL per well for 6-well plates or 1.5 mL per well for 24-well plates with coverslips. A full medium change was performed 48-hours post-seeding and medium was changed every 3 days until day 30. For drug treatments, cells at day-27 were fed with Maturation Medium containing the indicated drug and cells were analyzed at day 30.
Immunocytochemistry and imaging: mDA neuron cultures were plated on L-glass coverslips and grown as above. Day 30 neurons were fixed in 4% PFA at room temperature for 10-15 mins. Fixed coverslips were washed in PBS and permeabilized for 10 minutes at room temperature in 1% Triton X-100 in PBS, followed by staining in primary antibody solution (5% normal donkey serum, 0.125% Triton-X, PBS) overnight at 4° C. with the following antibodies: TH (1:5000, Immunostar #22941) and α-synuclein (1:500, Abcam #ab138501). Samples were washed 3 times in PBS and stained with species-specific Alexa Fluor 488 or 594-conjugated secondary antibodies (1:500, Invitrogen) for 2 hours at room temperature, followed by DAPI counterstain. Confocal Z-stack images were acquired using a A1 microscope (Nikon) with 40× and 20× objectives and rendered using maximum intensity projection through IMARIS software (Bitplane).
Western blot: Cells were gently scraped off the plates, washed with PBS, centrifuged at 15000 RPM for 1 min, and dry pellets were frozen at −80° C. Samples were then thawed and lysed using 1×NETN buffer (20 mM Tris-HCl (pH 8.0), 100 mM NaCl, 0.5 mM EDTA and 0.5% NP-40) supplemented with phosphatase/protease inhibitor cocktail (MS-SAFE, Sigma-Aldrich). Lysates were sonicated in an automated cold bath sonicator for 20 mins using alternating 10 sec pulses followed by 10 sec rests. Samples were centrifuged for 20 min at 4° C. at 15000 RPM. Total soluble protein concentrations were measured using a Bradford assay (BIO-RAD). […]

[3] = tested on: tyrosine hydroxylase (TH); assay type: cell-based, human; conditions: mDA cultures, phorbol ester PKC agonists; PMA 10 μM, PRO 5 μM, day 27-30
Experimental: as §1
Analytical flow cytometry: Day-30 cultures in 6-well plates were washed once in phosphate buffered saline (PBS) then 1 mL Accutase was added to each well and incubated for 25 mins at 37° C. or until the cells fully lifted. Cells were washed with an additional 2 mL Maturation Medium and very gently triturated until large clumps were no longer visible at which point cells were pelleted by centrifugation (1500 RPM for 3 mins). Cells were gently resuspended in 4% paraformaldehyde (PFA) in PBS and allowed to fix for 10-15 mins at room temperature. Fixed single cells were permeabilized using 1% Trition X-100 (Sigma-Aldrich) and stained using primary antibodies against TH (1:500 Immunostar, 22941), α-synuclein (1:1000 Abcam, ab138501), and MAP2ab (1:1000 Sigma-Aldrich, M1406), or isotype controls at same dilution (Cell Signaling IgG Isotype Control rabbit #3900S and mouse #5415S). Secondary antibodies (Alexa Fluor 488 and 594 donkey anti-mouse and donkey anti-rabbit, Invitrogen) were used at 1:500. Stained samples were quantified on an LSR Fortessa cytometer using BD FACSDiva software.
Immunocytochemistry and imaging: mDA neuron cultures were plated on L-glass coverslips and grown as above. Day 30 neurons were fixed in 4% PFA at room temperature for 10-15 mins. […]

p-PKCα = conditions: for phospho PKCα level: D30 mDA neurons (FIG. 37)

How did the P53 level (P53) turn out when `CC(C)C[C@@H](C=O)NC(=O)[C@H](CC(C)C)NC(=O)[C@H](CC(C)C)NC(=O)OCc1ccccc1` [MG132] (Cbz-Leu-Leu-Leu-aldehyde) was run?
Its P53 level is “accumulation”.

What about the “α-synuclein levels under proteasome inhibition” value (α-synuclein [1]) of the same compound?
The value was “no significant increase; also recorded: no substantial change”.

What does the source list for `CC(=O)O[C@@]12C[C@@H](C)[C@@]3(O)[C@@H](C=C(CO)C[C@]4(O)C(=O)C(C)=C[C@@H]34)[C@@H]1C2(C)C` [PRO, Prostratin]?
α-synuclein expression, dose response (α-synuclein [2]; dose response study, mDA cultures): decreased; α-synuclein level (α-synuclein [2]; mDA cultures): reduction; TH level [3]: increases

For `C=CCNc1ncnc2ccc(Br)cc12` [SMER28], which “α-synuclein levels (western blot)” value (α-synuclein [2]) is on record?
Its value is “not”.

What about the “amount of α-synuclein protein (western blot)” value (α-synuclein [2]) of the same compound?
Its value is “significantly reduced”.

What about the “amount of α-synuclein protein (western blot)” value (α-synuclein [2]; listed as SMER-28) of the same compound?
Its value is “reduction”.

How did the “α-synuclein levels (western blot)” value (α-synuclein [2]) turn out when `OC[C@H]1O[C@H](O[C@H]2O[C@H](CO)[C@@H](O)[C@H](O)[C@H]2O)[C@H](O)[C@@H](O)[C@@H]1O` [Trehalose] was run?
Its value is “reduced; also recorded: reduction”.

With `CCCCCCCCCCCCCC(=O)O[C@@H]1[C@@H](C)[C@@]2(O)[C@@H](C=C(CO)C[C@]3(O)C(=O)C(C)=C[C@@H]23)[C@@H]2C(C)(C)[C@]12OC(C)=O` [PMA, Phorbol 12-myristate 13-acetate] as the compound, how does the α-synuclein level (α-synuclein [2]; mDA cultures) read?
Its α-synuclein level is “reduction”.

What about the TH level [3] of the same compound?
Its TH level is “increases”.

What about the p-PKCα level (p-PKCα; mDA cultures, phorbol ester PKC agonists, PMA 10 μM, PRO 5 μM, day 27-30) of the same compound?
The p-PKCα level was “reduction”.

Which synuclein level (α-synuclein [2]) does the source give for `CCC/C=C/C=C/C(=O)O[C@H]1/C(=C/C(=O)OC)C[C@H]2C[C@H]([C@@H](C)O)OC(=O)C[C@H](O)C[C@@H]3C[C@H](OC(C)=O)C(C)(C)[C@](O)(C[C@@H]4C/C(=C/C(=O)OC)C[C@H](/C=C/C(C)(C)[C@]1(O)O2)O4)O3` [Bryostatin 1] here?
Its synuclein level is “unclear effects”.

What about the synuclein level (α-synuclein [2]; listed as Bryostratin) of the same compound?
The synuclein level was “did not seem to affect”.

What about the “phospho PKCα level” value (p-PKCα) of the same compound?
Its value is “reduction”.

And the “phospho PKCα level” value (p-PKCα; listed as Bryostratin)?
The value was “did not seem to affect”.
